Several values for one entry are separate records, joined by “and”; a condition that tells them apart may be missing. Equal entries are not always repeated.
Test system: E. coli
Assay: Antimicrobial effectiveness: E. coli contacted with sample for 30 seconds, survivors calculated
Assay type: cell-based
Conditions: 30 seconds contact
Description: The antimicrobial effectiveness of the present invention in combination with octenyl succinic acid was tested. In this application, the test organism was E. coli, which was contacted with either the control or the stated sample for 30 seconds, and the survivors were calculated.

Compound | Percent Reduction (25 ppm active) | Survivors (25 ppm active) | Percent Reduction (50 ppm active) | Percent Reduction (75 ppm active) | Survivors (75 ppm active) | Percent Reduction (160 ppm active) | Survivors (160 ppm active) | Percent Reduction (320 ppm active) | Survivors (320 ppm active) | Percent Reduction (480 ppm active) | Survivors (480 ppm active)
CCCCCCCCCCCC(=O)N[C@@H](CCCN=C(N)N)C(=O)OCC [LA, ethyl lauroyl arginate] | 96.494% and 96.299% | 5,400,000 org/ml and 5,700,000 org/ml | 99.851% and 99.926% | 99.979% and 99.975% | 33,000 org/ml and 39,000 org/ml | – | – | – | – | – | –
octenyl succinic acid [OSA] | – | – | – | – | – | 84.351% and 84.805% | 24,100,000 org/ml and 23,400,000 org/ml | 99.999% | 2,000 org/ml and 2,200 org/ml | 99.999% | 1,900 org/ml and 1,920 org/ml

— patent US20100324137A1, “LAURIC ARGINATE AS A CONTACT ANTIMICROBIAL” (DIVERSEY, INC., priority 2009, published 2010)
